Reference: patent US20070027118A1 (priority 2005, published 2007)

How the values were obtained:
[1] = molecular target: T1, 11β-hsd-1 enzyme (Homo sapiens, UniProt P28845); assay: biochemical; conditions: read-out: % Inh @ 0.1 mM; for inhibition at 100 µM: Table 2, inhibitor 0.1 mM as printed
Method in brief: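 Human 11β-HSD-1 (5 nM) pre-incubated ≥30 min with inhibitor and 500 μM NADPH in triethanolamine buffer pH 8.0 with NaCl, n-dodecyl β-D-maltoside and β-ME; reaction started with G6P/G6PDH/MgCl2 regenerating system and 200 nM 3H-cortisone, run 60 min, stopped with DMSO. 3H-cortisol and substrate separated by radio-HPLC; percent inhibition from peak areas.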

[2] = molecular target: T1, 11β-hsd-1 enzyme; assay: biochemical
Method in brief: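 Enzyme (5 nM) pre-incubated ≥30 min at RT with inhibitor and 500 μM NADPH in triethanolamine buffer pH 8.0; reaction started with glucose-6-phosphate regenerating system and 200 nM 3H-cortisone, stopped with DMSO after 60 min. Product quantified by radio-HPLC; Kiapp from Morrison tight-binding equation.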

T1 sequence (P28845 whole entry, species assumed): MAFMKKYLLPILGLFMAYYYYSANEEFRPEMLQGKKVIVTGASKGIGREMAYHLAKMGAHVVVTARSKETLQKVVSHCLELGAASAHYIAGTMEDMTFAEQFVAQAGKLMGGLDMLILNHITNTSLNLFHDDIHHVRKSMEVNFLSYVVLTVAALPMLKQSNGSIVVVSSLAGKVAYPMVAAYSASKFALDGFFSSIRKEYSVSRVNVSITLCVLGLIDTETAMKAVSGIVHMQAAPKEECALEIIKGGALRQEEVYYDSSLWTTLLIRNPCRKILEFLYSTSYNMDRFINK

| SMILES | inhibition [1] [%] | Ki [2] [µM] | inhibition at 100 µM [1] [%] |
| --- | --- | --- | --- |
| CCc1cccc(NS(=O)(=O)N2CCN(c3nc4ncccc4o3)CC2)n1 [Example 145, N-(6-ethylpyridin-2-yl)-4-[13]oxazolo[45-b]pyridin-2-ylpiperazine-1-sulfanamide] | 79.2 | 0.062 |  |
| CCc1cccc(NS(=O)(=O)N2CCc3nc(-c4ccccc4)nc(C(=O)NC)c3C2)n1 [Example 148, 6-{[(6-ethylpyridin-2-yl)amino]sulfonyl}-N-methyl-2-phenyl-5678-tetrahydro-pyrido[43-d]pyrimidine-4-carboxamide] | 83.9 | 0.026 |  |
| CCc1cccc(NS(=O)(=O)N2CCN(c3nc4nc(C)ccc4o3)CC2)n1 [Example 149, N-(6-ethylpyridin-2-yl)-4-(5-methyl[13]oxazolo[45-b]pyridin-2-yl)piperazine-1-sulfonamide] | 78.2 | 0.28 |  |
| CCc1cccc(NS(=O)(=O)N2CCCN(c3nc4cc(Cl)ccc4o3)CC2)n1 [Example 150, 4-(5-chloro-13-benzoxazol-2-yl)-N-(6-ethylpyridin-2-yl)-14-diazepane-1-sulfonamide] | 90.3 | 0.023 |  |
| COc1ccc(-c2cnc(N3CCN(S(=O)(=O)Nc4cccc(C)n4)CC3)nc2)cc1 [Example 151, 4-[5-(4-methoxyphenyl)-pyrimidin-2-yl]-N-(6-methylpyridin-2-yl)piperazine-1-sulfonamide] | 100 | 0.001 |  |
| Cc1cccc(NS(=O)(=O)N2CCCN(c3nc4cc(Cl)ccc4o3)CC2)n1 [Example 153, 4-(5-chloro-13-benzoxazol-2-yl)-N-(6-methylpyridin-2-yl)-14-diazepane-1-sulfonamide] |  | 0.0082 | 100 |
| O=S(=O)(Nc1ccc2ccccc2n1)N1CCN(c2ncccn2)CC1 [Example 154, 4-pyrimidin-2-yl-N-quinolin-2-ylpiperazine-1-sulfonamide] | 100 | 0.0051 |  |
| O=S(=O)(Nc1ccc2ccccc2n1)N1CCCCCCC1 [Example 155, N-quinolin-2-ylazocane-1-sulfonamide] | 90.6 | 0.0071 |  |
| O=S(=O)(Nc1ccc2ccccc2n1)N1CCN(c2ccccn2)CC1 [Example 156, 4-pyridin-2-yl-N-quinolin-2-ylpiperazine-1-sulfonamide] | 92.9 | 0.017 |  |
| O=S(=O)(Nc1ccc2ccccc2n1)N1CCCCCC1 [Example 157, N-quinolin-2-ylazepane-1-sulfonamide] |  | 0.032 | 100 |
| CCOC(=O)N1CCN(S(=O)(=O)Nc2ccc3ccccc3n2)CC1 [Example 160, ethyl 4-[(quinolin-2-ylamino)sulfonyl]piperazine-1-carboxylate] | 85.7 | 0.011 |  |
| Cc1cccc(N2CCN(S(=O)(=O)Nc3ccc4ccccc4n3)CC2)n1 [Example 161, 4-(6-methylpyridin-2-yl)-N-quinolin-2-ylpiperazine-1-sulfonamide] | 91.9 | 0.016 |  |
| N#Cc1cccnc1N1CCN(S(=O)(=O)Nc2ccc3ccccc3n2)CC1 [Example 162, 4-(3-cyanopyridin-2-yl)-N-quinolin-2-ylpiperazine-1-sulfonamide] | 92.2 | 0.026 |  |
| O=C(OCc1ccccc1)N1CCCN(S(=O)(=O)Nc2ccc3ccccc3n2)CC1 [Example 164, benzyl 4-[(quinolin-2-ylamino)sulfonyl]-14-diazepane-1-carboxylate] | 81.4 | 0.038 |  |
| COc1cccc(N2CCN(S(=O)(=O)Nc3ccc4ccccc4n3)CC2)n1 [Example 165, 4-(6-methoxypyridin-2-yl)-N-quinolin-2-ylpiperazine-1-sulfonamide] | 100 | 0.0014 |  |
| COc1ccc2oc(N3CCN(S(=O)(=O)Nc4ccc5ccccc5n4)CC3)nc2c1 [Example 166, 4-(5-methoxy-13-benzoxazol-2-yl)-N-quinolin-2-ylpiperazine-1-sulfonamide] | 100 | 0.016 |  |
| O=C1CN(S(=O)(=O)Nc2ccc3ccccc3n2)CCN1C1CCCC1 [Example 169, 4-cyclopentyl-3-oxo-N-quinolin-2-ylpiperazine-1-sulfonamide] | 84.6 | 0.068 |  |
| O=C1CN(S(=O)(=O)Nc2ccc3ccccc3n2)CCN1Cc1ccc(F)cc1 [Example 173, 4-(4-fluorobenzyl)-3-oxo-N-quinolin-2-ylpiperazine-1-sulfonamide] |  | 0.13 | 75.5 |

| SMILES | inhibition [1] [%] | Ki [2] [µM] | inhibition at 100 µM [1] [%] |
| --- | --- | --- | --- |
| O=S(=O)(Nc1ccc2ccccc2n1)N1CCN(c2nc3ncccc3o2)CC1 [Example 176, 4-[13]oxazolo[45-b]pyridin-2-yl-N-quinolin-2-ylpiperazine-1-sulfonamide] | 70.4 | 0.11 |  |
| O=C(c1ccc(N2CCN(S(=O)(=O)Nc3ccc4ccccc4n3)CC2)nc1)N1CCOCC1 [Example 178, 4-[5-(morpholin-4-ylcarbonyl)pyridin-2-yl]-N-quinolin-2-ylpiperazine-1-sulfonamide] | 73.3 | 0.19 |  |
| O=S(=O)(Nc1ccc2ccccc2n1)N1CCCN(c2nc3cc(Cl)ccc3o2)CC1 [Example 180, 4-(5-chloro-13-benzoxazol-2-yl)-N-quinolin-2-yl-14-diazepane-1-sulfonamide] | 100 | 0.02 |  |
| CCc1cccc(NS(=O)(=O)N2CCc3conc3CC2)n1 [Example 181, N-(6-ethylpyridin-2-yl)-4578-tetrahydro-6H-isoxazolo[34-d]azepine-6-sulfonamide] | 83.4 | 0.096 |  |
| CCc1cccc(NS(=O)(=O)N2CCN(c3cccc(OC)n3)CC2)n1 [Example 183, N-(6-ethylpyridin-2-yl)-4-(6-methoxypyridin-2-yl)piperazine-1-sulfonamide] |  | 0.0115 | 100 |
| CCc1cccc(NS(=O)(=O)N2CCN(c3nc4ccc(Cl)cc4o3)CC2)n1 [Example 186, 4-(6-chloro-13-benzoxazol-2-yl)-N-(6-ethylpyridin-2-yl)piperazine-1-sulfonamide] |  | 0.0089 | 100 |
| CCc1cccc(NS(=O)(=O)N2CCCN(c3ncccc3C#N)CC2)n1 [Example 187, 4-(3-cyanopyridin-2-yl)-N-(6-ethylpyridin-2-yl)-14-diazepane-1-sulfonamide] | 68.8 | 0.16 |  |
| CCc1cccc(NS(=O)(=O)N2CCc3c(Cl)cccc3C2)n1 [Example 190, 5-chloro-N-(6-ethylpyridin-2-yl)-34-dihydroisoquinoline-2(1H)-sulfonamide] | 100 | 0.001 |  |
| CCc1cccc(NS(=O)(=O)N2CCN(c3ncccn3)CC2)n1 [Example 191, N-(6-ethylpyridin-2-yl)-4-pyrimidin-2-ylpiperazine-1-sulfonamide] | 90.5 | 0.12 |  |
| CCc1cccc(NS(=O)(=O)N2CCCCCCC2)n1 [Example 193, N-(6-ethylpyridin-2-yl)azocane-1-sulfonamide] | 92.5 | 0.0077 |  |
| CCc1cccc(NS(=O)(=O)N2CCN(c3ccccn3)CC2)n1 [Example 194, N-(6-ethylpyridin-2-yl)-4-pyridin-2-ylpiperazine-1-sulfonamide] |  | 0.037 | 81.4 |
| CCc1cccc(NS(=O)(=O)N2CCN(c3ncc(C(F)(F)F)cc3Cl)CC2)n1 [Example 195, 4-[3-chloro-5-(trifluoromethyl)pyridin-2-yl]-N-(6-ethylpyridin-2-yl)piperazine-1-sulfonamide] | 92.3 | 0.029 |  |
| CCOC(=O)N1CCN(S(=O)(=O)Nc2cccc(CC)n2)CC1 [Example 196, ethyl 4-{[(6-ethylpyridin-2-yl)amino]sulfonyl}piperazine-1-carboxylate] | 85.8 | 0.02 |  |
| CCc1cccc(NS(=O)(=O)N2CCCCCC2)n1 [Example 197, N-(6-ethylpyridin-2-yl)azepane-1-sulfonamide] | 79.5 | 0.035 |  |
| CCc1cccc(NS(=O)(=O)N2CCN(c3ncccc3C(F)(F)F)CC2)n1 [Example 198, N-(6-ethylpyridin-2-yl)-4-[3-(trifluoromethyl)pyridin-2-yl]piperazine-1-sulfonamide] | 69.1 | 0.071 |  |
| CCc1cccc(NS(=O)(=O)N2CCCN(Cc3ccc(F)cc3)CC2)n1 [Example 200, N-(6-ethylpyridin-2-yl)-4-(4-fluorobenzyl)-14-diazepane-1-sulfonamide] | 96.8 | 0.02 |  |
| CCc1cccc(NS(=O)(=O)N2CCN(c3ncccc3C#N)CC2)n1 [Example 201, 4-(3-cyanopyridin-2-yl)-N-(6-ethylpyridin-2-yl)piperazine-1-sulfonamide] | 83.9 | 0.033 |  |
